Where two headings read alike, the source gives them in different places.

For data set [1], the target named is T1, CB1 (Homo sapiens, UniProt P21554).
T1 construct: purchased Perkin Elmer RBHCB1M
Briefly: Radioligand displacement assay on CB1 receptor. The note with it: for affinity towards CB1 (in words): summary of Table 3. Type of data set: binding. The procedure: (§1) For the CB1 receptor, binding experiments were performed in the presence of 0.39 nM of the radioligand [^3H]CP55,940 (168 Ci/mmol) (Perkin Elmer, Waltham, MA, US) at 30°C in siliconized glass vials together with 7.16 µg of membrane recombinantly over-expressing CB1 (No. RBHCB1M, Perkin Elmer, Waltham, MA, US), which was resuspended in 0.2 mL (final volume) binding-buffer (50 mM TRIS-HCl, 2.5 mM EGTA, 5 mM MgCl2, 0.5 mg/mL fatty acid free BSA, pH 7.4). Test compounds were present at varying concentrations and the nonspecific binding of the radioligand was determined in the presence of 10 µM CP55,940 (Tocris Cookson Ltd., Bristol, UK). After 1.5 h incubation, the suspension was rapidly filtered through 0.05% polyethylenimine pre-soaked GF/C glass fiber filters on a 96-well cell harvester and washed nine times with 0.5 mL ice-cold washing-buffer (50 mM TRIS-HCl, 2.5 mM EGTA, 5 mM MgCl2, 2% BSA, pH 7.4). Radioactivity on filters was measured with a Beckman LS 6500 scintillation counter in 3 mL Ultima Gold scintillation liquid (Perkin Elmer, Waltham, MA, US). Data collected from three independent experiments performed in triplicates were normalized between 100% and 0% specific binding for [^3H]CP55,940. […] Derived from the dissociation constant (KD) of [^3H]CP55,940 and the concentration-dependent displacement (IC50 value), inhibition constants (Ki) of competitor compounds were calculated using the Cheng-Prusoff equation [Ki = IC50/(1+ L/KD)].

A short description of data set [2]: Critical micelle concentration (CMC) measurement, dye micellization. It counts as physicochemical. Particulars: fluorescein dye micellization in water, pH 6.9, room temperature. The procedure:
Dye micellization was carried out with a modified version of the method described by Eliyahu et al., Novel dextran-spermine conjugates as transfecting agents: comparing water-soluble and micellar polymers. […] Experiments were carried out on 96-well microtiter plates (excitation at 485 nm, emission at 535 nm). Since the emission of fluorescein is pH-dependent, the pH of the mixture was kept constant at 6.9. The CMC range was determined as the concentration range where the first statistically significant increase in fluorescence was detected.

Data set [3] deals with T2, FAAH (Sus scrofa, UniProt Q9TUI8).
T2 construct: 165 µl of diluted pig brain homogenate; from tissue; host or cells: pig brain homogenate
T2 sequence (Q9TUI8 1-579): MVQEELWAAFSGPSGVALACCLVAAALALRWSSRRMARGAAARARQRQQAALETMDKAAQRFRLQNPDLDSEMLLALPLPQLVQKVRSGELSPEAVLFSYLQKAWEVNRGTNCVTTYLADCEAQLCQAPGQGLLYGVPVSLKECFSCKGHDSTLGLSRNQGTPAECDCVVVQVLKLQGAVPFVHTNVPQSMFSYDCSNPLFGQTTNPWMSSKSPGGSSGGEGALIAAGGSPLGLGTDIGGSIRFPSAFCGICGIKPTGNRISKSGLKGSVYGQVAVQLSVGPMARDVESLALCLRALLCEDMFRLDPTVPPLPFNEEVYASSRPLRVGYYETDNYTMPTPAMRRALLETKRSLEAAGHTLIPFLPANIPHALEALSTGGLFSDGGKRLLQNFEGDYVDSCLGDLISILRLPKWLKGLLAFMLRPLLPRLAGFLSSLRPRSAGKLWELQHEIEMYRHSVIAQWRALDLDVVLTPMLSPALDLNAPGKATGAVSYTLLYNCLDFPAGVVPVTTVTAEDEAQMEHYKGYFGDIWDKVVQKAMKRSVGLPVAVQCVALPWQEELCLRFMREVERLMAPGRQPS
In words: Fatty acid amide hydrolase (FAAH) inhibition, pig brain homogenate (assay D). Type of data set: biochemical. The note with it: 1 µM; pig brain homogenate (assay D). How it is done: FAAH activity was assessed using pig brain homogenate according to the method described by Omeir et al., Arachidonoyl ethanolamide-[1,2-14C] as a substrate for anandamide amidase. Life Sci. 1995;56(23-24):1999-2005, and adapted by Fowler et al., Ibuprofen inhibits rat brain deamidation of anandamide at pharmacologically relevant concentrations. Mode of inhibition and structure-activity relationship. J Pharmacol Exp Ther. 1997 Nov;283(2):729-34. Briefly, 10 µl of test compounds at the adequate concentration or solvent were incubated at 37°C for 20 min with 165 µl of diluted pig brain homogenate in 10 mM Tris-HCl and 1 mM EDTA, pH 7.6 (corresponding to 100 µg/ml of total protein), 1% w/v fatty acid free BSA (Sigma, San Louis, MO, US) and 25 µl of a mixture 1:1 of nonradioactive AEA [^3H]-AEA (60 Ci mmol^-1) (concentration in the assay was 2 µM). Successively, 400 µl of a mixture 1:1 (v/v) of methanol:chloroform was added at each sample and, after vigorous vortexing, aqueous and organic phases were separated by centrifugation at 10000 rpm for 10 min. The radioactivity associated to the [^3H]-ethanolamine (produced by FAAH-catalysed breakdown of [^3H]-AEA) was measured upon addition of 3 ml of Ultima Gold scintillation liquid (Perkin Elmer, Waltham, MA, US) to 200 µl of the aqueous (upper) phase, using a Beckman LS6500 scintillation counter. Results were expressed as % of FAAH activity vs. pig brain homogenate treated only with solvent.

Data set [4] concerns Arachidonoylethanolamide Transport (AEAT). In words: Cellular uptake of [3H]-AEA in U937 cells (assay C). It counts as cell-based. The note with it: Homo sapiens, U-937; [3H]-AEA uptake, assay C (Tables 2 and 3).
The target of data set [5] is CB2 (Homo sapiens, UniProt P34972). Briefly: Radioligand displacement assay on CB2 receptor. It counts as binding. More on the design: purchased Perkin Elmer RBXCB2M. The note with it: for affinity towards CB2 (in words): summary of Table 3. The procedure:
as §1
For CB2-receptor binding studies 3.8 µg of membrane recombinantly over-expressing CB2 (No. RBXCB2M, Perkin Elmer, Waltham, MA, US) were resuspended in 0.6 mL binding buffer (see above) together with 0.11 nM of the radioligand [^3H]CP55,940. The CB2-binding assay was conducted in the same manner as for CB1.

Data set [6] deals with IL-8. Briefly: Induced chemokine IL-8 in HaCaT keratinocytes. It counts as cell-based, human. The note with it: Figure 6, 5 µM, tolerogen 10 µg/ml, 6h. The procedure:
• Figure 1: AEA re-uptake inhibition of 2E,4E-dieneamides 1 and 9 into human primary monocytes and U937 cells. […] Data are mean values ± SEM of 3 independent experiments in a sigmoidal dose-response curve. • Figure 2: Concentration-dependent effects of 4 and 5 on FAAH activity. […] The maximal inhibition (32%) of 5 was measured at 1 µM. Data are mean values ± SEM of 3 independent experiments. • Figure 3: Effects of low nM concentrations of N-alkylamide 7 on FAAH activity alone and in combination with the FAAH inhibitor URB597. […] Data are mean values ± SEM of 3 independent experiments. • Figure 4: 1 and 9 inhibit LPS-induced TNF-alpha release into culture medium (measured by ELISA). Human macrophages (10^6 cells) were stimulated with LPS (500 ng/ml) and treated with UCM707 and/or compounds 1 and 9 at 5 µM for 18 h. N = 3 ± SEM. • Figure 5: UCM707 (positive control) and compounds 1 and 9 diminish NO2^- production. Human macrophages (10^6 cells) were stimulated with LPS (500 ng/ml) and treated with UCM707 and/or compounds 1 and 9 at 5 µM for 18 h. Culture supernatants were assayed for nitrite levels, using the Griess reagent as a reflection of NO production. Results are the mean ± SEM of four independent experiments performed in duplicate • Figure 6: In CB receptor expressing human HaCaT keratinocytes (10^6 cells) UCM707 (control) 1 and 9 like the endocannabinoid anandamide (each 5 µM) inhibited tolerogen (10 µg/ml) induced chemokine IL-8 (6h stimulation and incubation). N = 3 ± SEM.

Where [7] appears, read: displacement of 0.39 nM [3H]CP55,940, membrane recombinantly over-expressing CB1, read-out: Receptor affinity Ki CB1.
The mark [8] stands for this setting: displacement of 0.11 nM [3H]CP55,940, membrane recombinantly over-expressing CB2, read-out: Receptor affinity Ki CB2.

CB2, sequence (P34972 whole entry): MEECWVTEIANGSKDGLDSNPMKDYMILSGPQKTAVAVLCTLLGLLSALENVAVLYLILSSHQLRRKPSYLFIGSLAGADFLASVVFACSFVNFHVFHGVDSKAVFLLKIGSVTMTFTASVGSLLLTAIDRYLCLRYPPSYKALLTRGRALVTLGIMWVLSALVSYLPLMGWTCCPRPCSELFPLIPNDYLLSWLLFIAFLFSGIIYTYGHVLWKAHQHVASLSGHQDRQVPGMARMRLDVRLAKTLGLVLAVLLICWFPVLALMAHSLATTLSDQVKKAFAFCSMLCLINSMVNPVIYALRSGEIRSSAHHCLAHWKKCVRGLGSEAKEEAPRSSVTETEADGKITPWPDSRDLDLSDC
T1 sequence (P21554 whole entry): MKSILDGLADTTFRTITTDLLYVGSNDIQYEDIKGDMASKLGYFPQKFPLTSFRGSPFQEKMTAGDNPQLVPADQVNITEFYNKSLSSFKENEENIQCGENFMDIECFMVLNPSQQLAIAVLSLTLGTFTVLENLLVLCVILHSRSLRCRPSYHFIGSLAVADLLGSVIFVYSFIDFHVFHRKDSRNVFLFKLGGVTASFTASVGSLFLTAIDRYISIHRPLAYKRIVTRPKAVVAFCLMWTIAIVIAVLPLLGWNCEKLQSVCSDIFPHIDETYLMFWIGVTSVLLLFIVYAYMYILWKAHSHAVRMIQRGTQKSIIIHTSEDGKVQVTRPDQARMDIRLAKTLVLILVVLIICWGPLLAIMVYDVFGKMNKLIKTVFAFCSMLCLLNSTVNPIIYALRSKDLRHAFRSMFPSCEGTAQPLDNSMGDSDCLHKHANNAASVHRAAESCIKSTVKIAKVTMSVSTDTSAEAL

In the case of `CCCCCCC/C=C/C=C/C(=O)NCC(C)CC` (racemic) [Compound B, (2E,4E)-N-(2-methylbutyl)dodeca-2,4-diene amide], in data set [1], affinity was put at a Ki of 1510 ± 214 nM and the “affinity towards CB1 (in words)” value is recorded as “moderate affinity”. Further, the CMC in data set [2] was more than 5 µM. Further, in data set [3], the “FAAH inhibition at 1 µM” value is reported as <10 % of control. In data set [4], the EC50 is more than 10000 nM. In data set [5], the Ki amounted to 1100 ± 84 nM and the “affinity towards CB2 (in words)” value is listed as “moderate affinity”.
`CCCCCCC/C=C/C=C/C(=O)NCCC(C)C` [Compound C, (2E,4E)-N-isopentyldodeca-2,4-diene amide]: in data set [1], the Ki was more than 20000 nM and the “affinity towards CB1 (in words)” value is “no affinity”. The CMC in data set [2] was more than 5 µM. The “FAAH inhibition at 1 µM” value in data set [3] is reported as <10 % of control. In data set [4], this molecule came in with an EC50 of more than 10000 nM. Further, in data set [5], the affinity corresponds to a Ki of 1455 ± 14 nM and the “affinity towards CB2 (in words)” value is reported as “moderate affinity”.
Consider `CCCCCCC/C=C/C=C/C(=O)N1CCCC1` [Compound D, (2E,4E)-1-(pyrrolidin-1-yl)dodeca-2,4-dien-1-one], for which the Ki is more than 20000 nM in data set [1] (setting [7]) and less than 10000 nM in data set [5] (setting [8]). In data set [2], the CMC is more than 5 µM. The “FAAH inhibition at 1 µM” value in data set [3] was <10 % of control. Besides, the EC50 in data set [4] was more than 10000 nM.
In the case of `CCCCCCC/C=C/C=C/C(=O)N1CCCCC1` [Compound E, (2E,4E)-1-(piperidin-1-yl)dodeca-2,4-dien-1-one], the Ki in data set [1] (setting [7]) came out at 2190 ± 180 nM; in data set [5] (setting [8]), 2640 ± 224 nM. In addition, the “affinity towards CB1 (in words)” value in data set [1] is reported as “moderate affinity”. Also, the CMC in data set [2] is more than 5 µM. Besides, the “FAAH inhibition at 1 µM” value in data set [3] is given as <10 % of control. The EC50 in data set [4] was more than 10000 nM. Moreover, the “affinity towards CB2 (in words)” value in data set [5] is recorded as “moderate affinity”.
In the case of `CCCCC/C=C\C/C=C\C/C=C\C/C=C\CCCC(=O)NCCO` [anandamide, N-arachidonoylethanolamide, reference compound], in data set [6], the “tolerogen induced chemokine IL-8” value is listed as “inhibited”.

Source of the values: EP2435019B1, “DODECA-2E,4E-DIENE AMIDES AND THEIR USE AS MEDICAMENTS AND COSMETICS” (Dr. August Wolff GmbH & Co. KG Arzneimittel, priority 2009, dated 2010).
